Test results as given in ChEMBL document CHEMBL5154653, “The discovery of 1, 3-diamino-7H-pyrrol[3, 2-f]quinazoline compounds as potent antimicrobial antifolates” (Eur J Med Chem, 2022).
pIC50, pKd: −log10 of the molar value. One block for each molecule: values may come before it. The source made the active and inactive calls. The calls are words filed in the database; no cut-off is given here.

Assays:
Escherichia coli [1] = test: Inhibition of Escherichia coli C-terminal hexahistidine tagged DHFR at 5 uM incubated for 5 mins in presence of NADPH by measuring oxidation of NADPH to NADP+
Escherichia coli [2] = test: Antibacterial activity against Escherichia coli ATCC 25922 assessed as reduction in microbial growth after 16 to 18 hrs by microbroth dilution method; format: functional; conditions: time 16-18 hrs
Klebsiella pneumoniae [3] = test: Antibacterial activity against Klebsiella pneumoniae ATCC 700603 assessed as reduction in microbial growth after 16 to 18 hrs by microbroth dilution method; format: functional; conditions: time 16-18 hrs
Acinetobacter baumannii [4] = test: Antibacterial activity against Acinetobacter baumannii ATCC 19606 assessed as reduction in microbial growth after 16 to 18 hrs by microbroth dilution method; format: functional; conditions: time 16-18 hrs
[5] = Inhibition of Escherichia coli C-terminal hexahistidine tagged DHFR incubated for 5 mins in presence of NADPH by measuring oxidation of NADPH to NADP+
Escherichia coli [6] = test: Binding affinity to Escherichia coli C-terminal hexahistidine tagged DHFR assessed as change in enthalpy at 0.2 mM by isothermal titration calorimetry method
Escherichia coli [7] = test: Binding affinity to Escherichia coli C-terminal hexahistidine tagged DHFR assessed as change in entropy at 0.2 mM by isothermal titration calorimetry method
[8] = Binding affinity to Escherichia coli C-terminal hexahistidine tagged DHFR assessed as dissociation constant by isothermal titration calorimetry method
Escherichia coli [9] = test: Binding affinity to Escherichia coli C-terminal hexahistidine tagged DHFR assessed as change in gibbs free energy at 0.2 mM by isothermal titration calorimetry method
Acinetobacter baumannii [10] = test: Antibacterial activity against multi drug resistant Acinetobacter baumannii CCPM(A)-100902 assessed as reduction in microbial growth after 16 to 18 hrs by microbroth dilution method; format: functional; conditions: time 16-18 hrs
Acinetobacter baumannii [11] = test: Antibacterial activity against multi drug resistant Acinetobacter baumannii CCPM(A)-100903 assessed as reduction in microbial growth after 16 to 18 hrs by microbroth dilution method; format: functional; conditions: time 16-18 hrs
Acinetobacter baumannii [12] = test: Antibacterial activity against multi drug resistant Acinetobacter baumannii CCPM(A)-1100708 assessed as reduction in microbial growth after 16 to 18 hrs by microbroth dilution method; format: functional; conditions: time 16-18 hrs
Acinetobacter baumannii [13] = test: Antibacterial activity against Acinetobacter baumannii CCPM(A)-100946 assessed as reduction in microbial growth after 16 to 18 hrs by microbroth dilution method; format: functional; conditions: time 16-18 hrs
Acinetobacter baumannii [14] = test: Antibacterial activity against Acinetobacter baumannii CCPM(A)-100947 assessed as reduction in microbial growth after 16 to 18 hrs by microbroth dilution method; format: functional; conditions: time 16-18 hrs
Klebsiella pneumoniae [15] = test: Antibacterial activity against ESBL-producing Klebsiella pneumoniae CCPM(A)-081514 assessed as reduction in microbial growth after 16 to 18 hrs by microbroth dilution method; format: functional; conditions: time 16-18 hrs
Klebsiella pneumoniae [16] = test: Antibacterial activity against ESBL-producing Klebsiella pneumoniae CCPM(A)-081568 assessed as reduction in microbial growth after 16 to 18 hrs by microbroth dilution method; format: functional; conditions: time 16-18 hrs
Klebsiella pneumoniae [17] = test: Antibacterial activity against Klebsiella pneumoniae CCPM(A)-081018 assessed as reduction in microbial growth after 16 to 18 hrs by microbroth dilution method; format: functional; conditions: time 16-18 hrs
Escherichia coli [18] = test: Antibacterial activity against Escherichia coli CCPM(A)-0715118 assessed as reduction in microbial growth after 16 to 18 hrs by microbroth dilution method; format: functional; conditions: time 16-18 hrs
Escherichia coli [19] = test: Antibacterial activity against ESBL-producing Escherichia coli CCPM(A)-071030 assessed as reduction in microbial growth after 16 to 18 hrs by microbroth dilution method; format: functional; conditions: time 16-18 hrs
Escherichia coli [20] = test: Antibacterial activity against ESBL-producing Escherichia coli CCPM(A)-0715117 assessed as reduction in microbial growth after 16 to 18 hrs by microbroth dilution method; format: functional; conditions: time 16-18 hrs
Escherichia coli [21] = test: Antibacterial activity against ESBL-producing Escherichia coli CCPM(A)-0715142 assessed as reduction in microbial growth after 16 to 18 hrs by microbroth dilution method; format: functional; conditions: time 16-18 hrs
Staphylococcus aureus [22] = test: Antibacterial activity against Staphylococcus aureus ATCC 29213 assessed as reduction in microbial growth after 16 to 18 hrs by microbroth dilution method; format: functional; conditions: time 16-18 hrs
Staphylococcus aureus [23] = test: Antibacterial activity against methicillin-resistant Staphylococcus aureus ATCC 43300 assessed as reduction in microbial growth after 16 to 18 hrs by microbroth dilution method; format: functional; conditions: time 16-18 hrs
Enterococcus faecium = test: Antibacterial activity against vancomycin-resistant Enterococcus faecium ATCC 51559 assessed as reduction in microbial growth after 16 to 18 hrs by microbroth dilution method; format: functional; conditions: time 16-18 hrs
Escherichia coli [24] = test: Antibacterial activity against Escherichia coli ATCC 25922 overexpressing DHFR assessed as reduction in microbial growth after 16 to 18 hrs by microbroth dilution method; format: functional; conditions: time 16-18 hrs
Escherichia coli [25] = test: Bactericidal activity against Escherichia coli ATCC 25922 at 0.5 to 8 times MIC by counting bacterial colonies upto 24 hrs time-kill assay; format: functional, organism-based; conditions: DDE = dose-dependent effect
Escherichia coli [26] = test: Bactericidal activity against Escherichia coli ATCC 25922 assessed as reductions in colony forming unit at 8 times MIC measured for 24 hrs by time-kill assay; format: functional
Escherichia coli [27] = test: Bactericidal activity against Escherichia coli ATCC 25922 assessed as suppression of regrowth of colonies at 4 to 8 times MIC measured for 24 hrs by time-kill assay; format: functional, organism-based
Escherichia coli [28] = test: Bactericidal activity against Escherichia coli ATCC 25922 at 30 pg/ml measured for 24 hrs in presence of SMZ by time-kill assay; format: functional, organism-based
Klebsiella pneumoniae [29] = test: Bactericidal activity against Klebsiella pneumoniae CCPM(A)-081514 at 0.5 ug/ml measured for 24 hrs in presence of SMZ by time-kill assay; format: functional, organism-based; conditions: dose 0.5 µg/ml
Escherichia coli [30] = test: Synergistic antibacterial activity against Escherichia coli ATCC 25922 assessed as fractional inhibitory concentration index at 30 pg/ml measured for 24 hrs in presence of SMZ by microdilution checkerboard assay; format: functional
Klebsiella pneumoniae [31] = test: Synergistic antibacterial activity against Klebsiella pneumoniae CCPM(A)-081514 assessed as fractional inhibitory concentration index at 0.5 ug/ml measured for 24 hrs in presence of SMZ by microdilution checkerboard assay; format: functional; conditions: dose 0.5 µg/ml
Escherichia coli [32] = test: In vivo Antibacterial activity against Escherichia coli ATCC 25922 in septicemia ICR mouse model assessed as increase in mouse survival time administered iv measured after 14 hrs; format: functional, organism-based; conditions: dose 7.5-15 mg/kg, DDE = dose-dependent effect
Escherichia coli [33] = test: In vivo Antibacterial activity against Escherichia coli ATCC 25922 in septicemia ICR mouse model assessed as increase in mouse survival time at 15 mg/kg,iv measured after 14 hrs; format: functional
Escherichia coli [34] = test: In vivo Antibacterial activity against Escherichia coli ATCC 25922 in septicemia ICR mouse model assessed as reduction in bacterial load at 50 mg/kg, iv measured after 2 to 4 hrs; format: functional; conditions: time 2-4 hrs
Thymidylate synthase = Thymidylate synthase (Escherichia coli K-12, UniProt P0A884); test: Inhibition of Escherichia coli N-terminal hexahstidine-tagged TS by steady-state kinetic analysis
Sequence of Thymidylate synthase (P0A884 whole entry): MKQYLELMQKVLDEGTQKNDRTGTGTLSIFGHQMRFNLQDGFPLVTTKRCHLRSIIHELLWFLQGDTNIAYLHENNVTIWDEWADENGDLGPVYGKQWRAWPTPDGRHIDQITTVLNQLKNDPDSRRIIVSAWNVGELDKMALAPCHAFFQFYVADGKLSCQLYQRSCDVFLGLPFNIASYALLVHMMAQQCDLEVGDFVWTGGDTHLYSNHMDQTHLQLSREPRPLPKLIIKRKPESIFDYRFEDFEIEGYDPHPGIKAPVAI

[35] = biological target: Thymidylate synthase (Escherichia coli K-12) (UniProt P0A884); test: Binding affinity to Escherichia coli […] hexahistidine-tagged TS at 20 uM by biolayer interferometry assay
Sequence of Thymidylate synthase (Escherichia coli K-12) (P0A884 whole entry, looked up): as the sequence (P0A884 whole entry) above

Klebsiella pneumoniae [36] = test: Antibacterial activity against ESBL-producing Klebsiella pneumoniae ATCC 700603 assessed as reduction in microbial growth after 16 to 18 hrs by microbroth dilution method; format: functional; conditions: time 16-18 hrs
Escherichia coli [37] = test: Antibacterial activity against Escherichia coli ATCC 25922 assessed as blockage of folate pathway after 16 to 18 hrs in presence of thymine by microbroth dilution method; format: functional; conditions: time 16-18 hrs
Escherichia coli [38] = test: Potency index ratio of IC50 for TMP to IC50 for test compound for inhibition of Escherichia coli C-terminal hexahistidine tagged DHFR
Escherichia coli [39] = test: Antibacterial activity against Escherichia coli ATCC 25922 assessed as blockage of folate pathway after 16 to 18 hrs in presence of thymine by measuring fold increase in MIC by microbroth dilution method; format: functional; conditions: time 16-18 hrs
Escherichia coli [40] = test: Bactericidal activity against Escherichia coli ATCC 25922 at 0.5 to 8 times MIC by counting bacterial colonies time-kill assay; format: functional, organism-based; conditions: time <= 24.0 hrs, TDE = time-dependent effect
Escherichia coli [41] = test: In vivo Antibacterial activity against Escherichia coli ATCC 25922 in septicemia ICR mouse model assessed as increase in mouse survival rate administered iv measured […]; format: functional, organism-based; conditions: dose 7.5-15 mg/kg, DDE = dose-dependent effect
[42] = biological target: Thymidylate synthase (Escherichia coli K-12) (UniProt P0A884); test: Binding affinity to Escherichia coli N-terminal hexahistidine tagged TS assessed as change in gibbs free energy at 0.2 mM by isothermal titration calorimetry method
[43] = biological target: Thymidylate synthase (Escherichia coli K-12) (UniProt P0A884); test: Binding affinity to Escherichia coli N-terminal hexahistidine tagged TS assessed as change in entropy at 0.2 mM by isothermal titration calorimetry method
[44] = biological target: Thymidylate synthase (Escherichia coli K-12) (UniProt P0A884); test: Inhibition of Escherichia coli N-terminal hexahstidine-tagged TS at 500 uM by steady-state kinetic analysis

inhibition (Escherichia coli [1]): 78.9%
MIC (Escherichia coli [2]): 0.002 µg/mL
MIC (Klebsiella pneumoniae [3]): 0.25 µg/mL
MIC (Acinetobacter baumannii [4]): 0.06 µg/mL
SMILES: Nc1nc(N)c2c(ccc3c2ccn3Cc2ccc(F)cc2)n1

inhibition (Escherichia coli [1]): 68.1%
MIC (Escherichia coli [2]): 0.002 µg/mL
MIC (Klebsiella pneumoniae [3]): 0.25 µg/mL
MIC (Acinetobacter baumannii [4]): 2 µg/mL
SMILES: COc1ccc(Cn2ccc3c4c(N)nc(N)nc4ccc32)cc1

SMILES: Nc1nc(N)c2c(ccc3c2ccn3Cc2ccccc2F)n1
inhibition (Escherichia coli [1]): 76.2%
MIC (Escherichia coli [2]): 0.002 µg/mL
MIC (Klebsiella pneumoniae [3]): 1 µg/mL
MIC (Acinetobacter baumannii [4]): 1 µg/mL
pIC50 [5]: 8.63
deltaH (Escherichia coli [6]): -20.4 kcal/mol
TdeltaS (Escherichia coli [7]): -19.4 kcal/mol
pKd [8]: 8.80
deltaG (Escherichia coli [9]): -9.14 kcal/mol
MIC (Acinetobacter baumannii [10]): 0.03 µg/mL
MIC (Acinetobacter baumannii [11]): 8 µg/mL
MIC (Acinetobacter baumannii [12]): 8 µg/mL
MIC (Acinetobacter baumannii [13]): 0.06 µg/mL
MIC (Acinetobacter baumannii [14]): 0.125 µg/mL
MIC (Klebsiella pneumoniae [15]): 2 µg/mL
MIC (Klebsiella pneumoniae [16]): 0.03 µg/mL
MIC (Klebsiella pneumoniae [17]): 16 µg/mL
MIC (Escherichia coli [18]): 16 µg/mL
MIC (Escherichia coli [19]): 0.06 µg/mL
MIC (Escherichia coli [20]): 0.002 µg/mL
MIC (Escherichia coli [21]): 0.002 µg/mL
MIC (Staphylococcus aureus [22]): 0.03 µg/mL
MIC (Staphylococcus aureus [23]): 0.5 µg/mL
MIC (Enterococcus faecium): 0.03 µg/mL
MIC (Escherichia coli [24]): 8 µg/mL
Activity (Escherichia coli [25]): Dde
Activity (Escherichia coli [26]): 3 log10CFU/ml
Activity (Escherichia coli [27]): Active
Activity (Escherichia coli [28]): Active
Activity (Klebsiella pneumoniae [29]): Active
fractional inhibitory concentration index (FICI) (Escherichia coli [30]): 0.02
fractional inhibitory concentration index (FICI) (Klebsiella pneumoniae [31]): 0.07
Activity (Escherichia coli [32]): Dde
Activity (Escherichia coli [33]): 50%
Activity (Escherichia coli [34]): 100 CFU/ml
pIC50 (Thymidylate synthase): 4.95
Activity [35]: Active
MIC (Klebsiella pneumoniae [36]): 1 µg/mL
MIC (Escherichia coli [37]): 8 µg/mL
Ratio IC50 (Escherichia coli [38]): 20
fold change (FC) (Escherichia coli [39]): 4000
Activity (Escherichia coli [40]): Tde
Activity (Escherichia coli [41]): Dde
deltaG [42]: -5.82 kcal/mol
TdeltaS [43]: -20.9 kcal/mol
inhibition [44]: 50%
